Data taken from US20170147742A1 (priority 2014, published 2017).

Tests used:
[1] = system: wild-type E. coli Top10; test: Growth rate of wild-type E. coli Top10 with transcription and translation inhibitors (microplate OD600); format: cell-based, Escherichia coli
Procedure: Seed cultures were grown in LB medium supplemented with 30 μg/ml kanamycin from freshly transformed plates and after 10 to 12 h of overnight growth, pre-cultures were inoculated in fresh LB medium at a dilution of 100× for 2 to 3 h exponential growth (OD600=0.7−1). For characterization of the promoters in the vector pBbE8K, cell cultures were grown in 5 mL of pre-warmed LB medium at 37° C. in 50 mL test tubes, shaken at 225 rpm. The culture tubes were kept in ice for about 5 min to stop further growth and were pelleted by centrifugation for 2 min at 3300 g in 4° C., washed and diluted to OD600=0.1 by resuspension in pre-warmed supplemented minimal media with different glucose concentrations ranging from 20 mM to 0.1 mM. Cultures were then […] into transparent, flat-bottom 96-well plate in triplicate aliquots of […]. The plate was incubated in 37° C. with shaking for 8 min and growth rates were monitored by measuring absorbance at 600 nm and fluorescence were monitored by measuring RFP at excitation 535 nm and emission 600 nm using Synergy HT microplate reader (Biotek) over time. Time series OD600 and RFP data were collected for every 10 min for a total run time of 6 h.
[…] The cells were subjected to a microplate assay to measure their OD600 for 6 h. Three biological replicates were used for all of the experiments conducted.
For each promoter, the three OD600 and RFP data were averaged and background absorbance (wells containing only media) and fluorescence (Top10—E8K)) were subtracted from the raw measurements to obtain OD600 and RFP time series. Measurements were obtained in mid-exponential growth and growth rates were calculated as a time derivative of the OD curves, μ=d ln(OD)/dt. The activity of the promoters (RFP synthesis rate per cell) were calculated by, d(RFP)/dt/OD600. Relative promoter units of every promoter studied were calculated by, […]

[2] = system: E. coli containing the lasQS device; test: Growth rate of E. coli containing the lasQS inducible device exposed to AHL (microplate OD600); format: cell-based, Escherichia coli; conditions: glucose 20 mM
Procedure: For characterizations of inducible system (lasQS device) in the vector pBbE8K, cells were first grown to stationary phase overnight in LB medium before being diluted 100× into fresh LB medium. The diluted cells were grown to exponential phase (OD600=1), washed and resuspended in supplemented minimal media with varying glucose concentration (20-0.1 mM) as mentioned earlier. Before being subjected to the microplate fluorescence assay, N-(3-Oxododecanoyl)-L-homoserine lactone (3-Oxo-C12-HSL, Sigma-Aldrich) was added to the pre-culture (Top10—pTetR-LasR-pLuxR-RFP) at varying molar concentrations of 10^−7-10^−9 M. The cell cultures were measured for their OD600 and RFP fluorescence for 6 h.
For each promoter, the three OD600 and RFP data were averaged and background absorbance (wells containing only media) and fluorescence (Top10—E8K)) were subtracted from the raw measurements to obtain OD600 and RFP time series. Measurements were obtained in mid-exponential growth and growth rates were calculated as a time derivative of the OD curves, μ=d ln(OD)/dt. The activity of the promoters (RFP synthesis rate per cell) were calculated by, d(RFP)/dt/OD600. Relative promoter units of every promoter studied were calculated by,
The lasQS device used in this study comprised three key components (FIG. 5(A)): the AHL synthetase LasI, the transcription factor LasR, and the lasI promoter. LasI produces the signaling molecule 3-O—C12-HSL (or AHL), and the LasR-AHL complex activates the lasI promoter. First, to examine the characteristics of the lasQS device, we constitutively expressed LasR using a sigma-70 promoter J23105, derived from the BioBrick parts registry (www.partsregistry.org/Part:pSB1K3). The activity of the device was indicated by red fluorescence protein (RFP), which was placed under the control of the lasI promoter. E. coli containing the lasQS device was exogenously exposed to AHL concentrations ranging from 10^−9 M to 10^−7 M and varying glucose concentrations.

[3] = molecular target: E. coli RNA polymerase (Escherichia coli, UniProt P0A8V2); conditions: used in simulations, reference (44); read-out: inhibitory potency KI; cited from earlier work
Chain of E. coli RNA polymerase (P0A8V2 whole entry): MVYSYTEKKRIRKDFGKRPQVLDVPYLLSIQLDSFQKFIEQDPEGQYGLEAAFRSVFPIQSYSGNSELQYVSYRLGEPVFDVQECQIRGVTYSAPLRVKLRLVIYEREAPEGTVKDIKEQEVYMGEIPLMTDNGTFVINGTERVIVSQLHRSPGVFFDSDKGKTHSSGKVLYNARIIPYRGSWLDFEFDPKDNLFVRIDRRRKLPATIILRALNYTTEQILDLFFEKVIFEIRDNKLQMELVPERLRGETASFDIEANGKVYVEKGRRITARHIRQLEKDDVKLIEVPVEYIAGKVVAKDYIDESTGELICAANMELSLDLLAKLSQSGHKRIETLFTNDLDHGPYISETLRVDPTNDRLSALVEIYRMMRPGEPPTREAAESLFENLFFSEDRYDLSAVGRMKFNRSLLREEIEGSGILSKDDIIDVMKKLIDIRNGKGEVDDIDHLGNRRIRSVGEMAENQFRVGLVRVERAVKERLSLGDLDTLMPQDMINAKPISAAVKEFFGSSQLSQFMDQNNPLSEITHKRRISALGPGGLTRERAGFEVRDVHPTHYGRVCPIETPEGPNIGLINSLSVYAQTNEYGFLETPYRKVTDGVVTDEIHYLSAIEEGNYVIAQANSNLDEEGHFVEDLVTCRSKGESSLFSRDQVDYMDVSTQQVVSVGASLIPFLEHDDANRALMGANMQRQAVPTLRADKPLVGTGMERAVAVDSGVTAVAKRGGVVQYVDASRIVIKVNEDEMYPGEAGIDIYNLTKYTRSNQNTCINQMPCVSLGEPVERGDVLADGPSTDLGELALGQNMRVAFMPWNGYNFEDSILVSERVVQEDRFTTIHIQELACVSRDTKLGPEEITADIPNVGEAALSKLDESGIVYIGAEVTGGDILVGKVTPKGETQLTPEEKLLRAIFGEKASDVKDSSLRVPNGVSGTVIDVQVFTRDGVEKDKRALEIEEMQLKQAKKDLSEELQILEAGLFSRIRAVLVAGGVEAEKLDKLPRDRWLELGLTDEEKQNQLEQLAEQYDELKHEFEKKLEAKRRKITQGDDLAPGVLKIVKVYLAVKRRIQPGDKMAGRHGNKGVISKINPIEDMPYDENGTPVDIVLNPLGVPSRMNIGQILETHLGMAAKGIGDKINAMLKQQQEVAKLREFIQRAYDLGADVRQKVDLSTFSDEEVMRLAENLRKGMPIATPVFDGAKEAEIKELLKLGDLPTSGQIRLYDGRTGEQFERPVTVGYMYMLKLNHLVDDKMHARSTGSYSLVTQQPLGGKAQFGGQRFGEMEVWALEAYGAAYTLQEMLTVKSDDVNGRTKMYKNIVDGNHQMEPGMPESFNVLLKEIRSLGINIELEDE
Chain of E. coli RNA polymerase (P0A8T7 whole entry partner): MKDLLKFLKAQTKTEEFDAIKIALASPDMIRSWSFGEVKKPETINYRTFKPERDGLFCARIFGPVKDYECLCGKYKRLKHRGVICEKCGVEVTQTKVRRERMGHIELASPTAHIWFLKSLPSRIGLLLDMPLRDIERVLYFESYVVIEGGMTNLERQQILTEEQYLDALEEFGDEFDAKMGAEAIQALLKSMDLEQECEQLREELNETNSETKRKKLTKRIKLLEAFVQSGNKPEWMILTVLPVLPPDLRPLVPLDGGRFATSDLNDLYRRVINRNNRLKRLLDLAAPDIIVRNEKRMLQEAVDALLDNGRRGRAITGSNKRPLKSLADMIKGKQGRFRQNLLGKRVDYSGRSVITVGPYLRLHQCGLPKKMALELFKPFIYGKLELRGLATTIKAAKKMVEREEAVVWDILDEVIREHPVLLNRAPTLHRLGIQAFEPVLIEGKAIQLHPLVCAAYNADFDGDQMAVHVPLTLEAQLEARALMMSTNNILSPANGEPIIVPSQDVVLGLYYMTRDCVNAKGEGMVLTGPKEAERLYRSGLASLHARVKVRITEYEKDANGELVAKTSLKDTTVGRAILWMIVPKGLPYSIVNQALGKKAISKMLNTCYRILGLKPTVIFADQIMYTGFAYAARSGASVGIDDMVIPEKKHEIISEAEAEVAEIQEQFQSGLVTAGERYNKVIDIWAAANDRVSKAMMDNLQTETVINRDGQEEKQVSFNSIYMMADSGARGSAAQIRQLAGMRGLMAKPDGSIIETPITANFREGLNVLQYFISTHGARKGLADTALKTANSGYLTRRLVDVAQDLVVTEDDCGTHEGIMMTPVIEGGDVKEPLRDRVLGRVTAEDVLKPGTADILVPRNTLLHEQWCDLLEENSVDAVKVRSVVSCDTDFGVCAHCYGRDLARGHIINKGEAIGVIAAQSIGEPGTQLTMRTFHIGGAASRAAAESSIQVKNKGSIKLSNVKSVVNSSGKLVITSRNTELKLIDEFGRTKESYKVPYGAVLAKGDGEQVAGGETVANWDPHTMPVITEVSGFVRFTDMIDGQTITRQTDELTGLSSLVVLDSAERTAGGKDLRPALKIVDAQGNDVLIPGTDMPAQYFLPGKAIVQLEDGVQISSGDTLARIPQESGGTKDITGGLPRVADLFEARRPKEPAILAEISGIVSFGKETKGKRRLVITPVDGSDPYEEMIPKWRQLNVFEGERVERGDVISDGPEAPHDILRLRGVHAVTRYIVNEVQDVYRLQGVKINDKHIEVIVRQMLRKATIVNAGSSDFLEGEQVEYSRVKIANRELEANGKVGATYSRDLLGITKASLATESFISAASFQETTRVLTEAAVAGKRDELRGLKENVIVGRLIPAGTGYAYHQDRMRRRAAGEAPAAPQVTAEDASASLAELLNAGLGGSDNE
Chain of E. coli RNA polymerase (P0A7Z4 whole entry partner): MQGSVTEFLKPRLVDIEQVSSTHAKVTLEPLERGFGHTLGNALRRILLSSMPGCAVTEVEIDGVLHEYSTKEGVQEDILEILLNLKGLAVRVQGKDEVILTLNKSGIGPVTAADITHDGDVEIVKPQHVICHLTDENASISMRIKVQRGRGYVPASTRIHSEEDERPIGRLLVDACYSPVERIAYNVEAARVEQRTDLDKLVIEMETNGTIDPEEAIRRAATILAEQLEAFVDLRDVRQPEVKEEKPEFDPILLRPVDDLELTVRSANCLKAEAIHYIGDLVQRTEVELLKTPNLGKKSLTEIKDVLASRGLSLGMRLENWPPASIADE
Chain of E. coli RNA polymerase (P0A800 whole entry partner): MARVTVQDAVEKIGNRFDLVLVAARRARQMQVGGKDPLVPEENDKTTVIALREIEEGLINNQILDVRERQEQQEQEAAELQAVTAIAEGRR

CN(C)[C@@H]1C(O)=C(C(N)=O)C(=O)[C@@]2(O)C(O)=C3C(=O)c4c(O)cccc4[C@@](C)(O)[C@H]3C[C@@H]12 [tetracycline]
growth rate ([1]; tetracycline 4 μM): 0.19 doublings per hour | growth rate ([1]; tetracycline concentration of 1): 0.66 doublings per hour | growth rate ([1]; tetracycline concentration of 2): 0.38 doublings per hour

CCCCCCCCCC(=O)CC(=O)N[C@H]1CCOC1=O [AHL, N-(3-Oxododecanoyl)-L-homoserine lactone]
reduction in growth rate ([2]; AHL 10^−7 M): 23% | reduction in growth rate ([2]; AHL 10^−8 M): 13% | reduction in growth rate ([2]; AHL 10^−9M): 7%

CO[C@H]1/C=C/O[C@@]2(C)Oc3c(C)c(O)c4c(O)c(c(/C=N/N5CCN(C)CC5)c(O)c4c3C2=O)NC(=O)/C(C)=C\C=C\[C@H](C)[C@H](O)[C@@H](C)[C@@H](O)[C@@H](C)[C@H](OC(C)=O)[C@@H]1C [rifampicin]
Ki [3]: 1 nM | growth rate ([1]; rifampicin 6 μM, maximum glucose concentration): 0.79 doublings per hour | growth rate ([1]; rifampicin 8 μM, maximum glucose concentration): 0.68 doublings per hour | growth rate ([1]; rifampicin 10 μM, maximum glucose concentration, M9 supplemented media): 0.55 doubling per hour
